From patent publication US9321772B2, “Substituted pyrazolo[3,4-D]pyrimidines and uses thereof” (The Regents of the University of California, priority 2011, dated 2016)
“Also recorded” adds a separate entry of the source.

Experiments:
EGFR (T790M) = EGFR (T790M) (Homo sapiens, UniProt P00533, T790M); assay: In vitro kinase assay, EGFR gatekeeper mutant; assay type: biochemical; settings: 1 μM
Experimental: FIG. 10F. Selectivity profiles for a subset of kinases. The gatekeeper mutant alleles of RET, ABL1, and EGFR are V804L, T315I and T790M, respectively.
(§1) Using in vitro kinase assays we tested AD57, AD36, and AD58 at 1 μM for activity against approximately one-half of the human kinome (FIG. 1E): 165 Ser/Thr kinases, 91 Tyr kinases, and 10 PI kinases were assayed, totaling 266 kinases (244 distinct kinases plus 22 mutant isoforms; see FIG. 6A-6C, FIG. 7A-7F, and FIG. 8 for measured inhibition values).

Ret kinase domain = biological target: T1, Ret kinase domain (Homo sapiens, UniProt P07949); assay: In vitro kinase assay, Ret; assay type: biochemical
T1 construct: determined against a purified form of the Ret kinase domain
T1 sequence (P07949 724-1016 limits assumed): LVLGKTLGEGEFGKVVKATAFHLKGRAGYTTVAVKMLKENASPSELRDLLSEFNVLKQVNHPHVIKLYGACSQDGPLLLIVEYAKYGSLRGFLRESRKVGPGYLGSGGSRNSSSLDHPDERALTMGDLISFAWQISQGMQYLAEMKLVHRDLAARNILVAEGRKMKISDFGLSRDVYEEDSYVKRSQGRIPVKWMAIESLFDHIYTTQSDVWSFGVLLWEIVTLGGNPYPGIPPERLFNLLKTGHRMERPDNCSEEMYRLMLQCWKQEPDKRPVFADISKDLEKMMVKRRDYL
Experimental: FIG. 1D. […] Half maximal inhibitory concentrations (IC50) were determined against a purified form of the Ret kinase domain.
as §1
(§2) At least three major pathways are required for dRet^MEN2B-mediated transformation: Ras, Src, and glucose metabolism/PI3K (FIG. 3A; Ref (Read, R. D. et al., Genetics, 2005. 171(3): p. 1057-81)). We utilized in vitro kinase assays to assess compound activity against relevant kinases from each of these pathways, specifically Ret, B-Raf, Src, Tor, and S6K (FIG. 3B).

[1] = system: 266 kinases (approximately one-half of the human kinome); assay: Kinome-wide in vitro kinase profiling; assay type: biochemical; settings: 1 μM; among AD36, AD57, AD58
Text: FIG. 6A-6C Select Screen Inhibition Data for Tyrosine Kinases. Percent inhibition of kinase activity. Dark gray is greater than 80% inhibition, white is 40-80% inhibition, and light gray is less than 40% inhibition. Hashed boxes indicate no useful data was obtained. Full assay conditions described at www.invitrogen.com/kinaseprofiling.
FIG. 7A-7F Select Screen Inhibition Data for Serine/Threonine Kinases. Percent inhibition of kinase activity. Dark gray is greater than 80% inhibition, white is 40-80% inhibition, and light gray is less than 40% inhibition. Hashed boxes indicate no useful data was obtained. Full assay conditions described at www.invitrogen.com/kinaseprofiling.
FIG. 8 Select Screen Inhibition Data for Lipid Kinases. Percent inhibition of kinase activity. Dark gray is greater than 80% inhibition, white is 40-80% inhibition, and light gray is less than 40% inhibition. Hashed boxes indicate no useful data was obtained. Full assay conditions described at www.invitrogen.com/kinaseprofiling.
as §1

S6K = S6K (Homo sapiens, UniProt P23443); assay: In vitro kinase assay, S6K; assay type: biochemical; settings: in vitro kinase profile, 1 μM
Experimental: as §1, §2

Src = Src (Homo sapiens, UniProt P12931); assay: In vitro kinase assay, Src; assay type: biochemical; settings: in vitro kinase profile, 1 μM
Experimental: as §1, §2

[2] = Pharmacokinetic profile in murine models; assay type: in vivo, mouse
Text: In addition to the experiments with AD57 and AD80 in drosophila, we have examined these molecules in murine models of cancer.

[3] = system: TT cell tumors in athymic nu/nu mice; assay: MEN2 (TT) mouse xenograft model; assay type: in vivo; settings: for reduction of tumor progression relative to vehicle: nude mice transplanted with TT cells, oral gavage, median per group; for toxicity as assessed by animal body weights / tumor growth, in words: nude mice with TT tumors, PO administration
Experimental: FIG. 11. […] TT thyroid cancer cells were implanted into athymic nu/nu mice subcutaneously into the right flank under the conditions listed. Upon establishment of tumors, drugs were administered by oral gavage (5 days ON/2 days OFF schedule). Tumors were measured using digital calipers. […] VD=vandetanib.
FIG. 18A-18D. […] FIG. 18A. MEN2B (MZ) thyroid cancer cells were treated with the indicated concentrations of each inhibitor (7 days) and cell viability was quantitated by MTT assay. FIG. 18B. MEN2A (TT) thyroid cancer cells were treated with the indicated concentrations of each inhibitor (7 days) and cell viability was quantitated by MTT assay. FIG. 18C. […] Change in tumor volume was calculated per mouse. Values shown are the median percent change per group. 20 and 10 animals for vehicle and drug treated mice, respectively, were analyzed. FIG. 18D. Body weight measurements of AD80, Vandetanib (VD) and vehicle treated nude mice transplanted with TT cells. Values shown are the median of 20 and 10 animals for vehicle and drug treated mice, respectively.
TT-based tumors were grown for 46 days in athymic nu/nu male mice prior to drug administration.

B-Raf = B-Raf (Homo sapiens, UniProt P15056); assay: In vitro kinase assay, B-Raf; assay type: biochemical; settings: in vitro kinase profile, 1 μM
Experimental: as §1, §2

[4] = system: ER4 cells (ER4 subline of HCC827 cells resistant to erlotinib); assay: Erlotinib sensitivity of ER4 cells with AXL inhibitor treatment; assay type: cell-based; settings: 0.1, 1, 10 micromolar in combination with erlotinib
Text: FIG. 21A-21C. Overcoming acquired resistance through AXL inhibitor treatment. Erlotinib plus AD57, AD80, or AD81 in ER4 cells (ER4 subline of HCC827 cells that are resistant to erlotinib treatment). Legend: diamond symbols are DMSO control, square symbols are 0.1 micromolar of compound, triangle symbols are 1 micromolar of compound, x symbol are 10 micromolar of compound, all in combination with erlotinib.

TPC1 cells = assay: AnnexinV/PI flow cytometry apoptosis assay in TPC1 cells; assay type: cell-based, human
Experimental: FIG. 25. TPC1 cells were grown in 6 well dishes at 70-80% confluence in growth media supplemented with 10% FBS. TPC1 cells were treated with either AD80, the MEK inhibitor PD325901 or a combination of both inhibitors at indicated concentrations for 72 h. Induction of apoptosis was measured using flow cytometry based counting of AnnexinV/PI positive cells.

Sequence of Src (P12931 whole entry): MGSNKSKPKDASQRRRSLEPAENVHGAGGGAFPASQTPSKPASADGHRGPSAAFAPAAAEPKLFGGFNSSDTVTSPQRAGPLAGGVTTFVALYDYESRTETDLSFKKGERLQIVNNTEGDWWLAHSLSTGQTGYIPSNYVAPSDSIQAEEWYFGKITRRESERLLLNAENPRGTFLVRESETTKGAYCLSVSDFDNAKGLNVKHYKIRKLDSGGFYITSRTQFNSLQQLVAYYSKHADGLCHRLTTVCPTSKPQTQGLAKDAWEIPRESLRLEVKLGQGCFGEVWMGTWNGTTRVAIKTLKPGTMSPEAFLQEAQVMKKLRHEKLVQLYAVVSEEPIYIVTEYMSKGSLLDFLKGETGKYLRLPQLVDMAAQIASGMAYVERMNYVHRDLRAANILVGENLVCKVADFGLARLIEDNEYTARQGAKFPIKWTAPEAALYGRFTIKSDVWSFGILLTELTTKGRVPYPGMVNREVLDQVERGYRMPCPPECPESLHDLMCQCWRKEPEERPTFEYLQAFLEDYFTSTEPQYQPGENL
Sequence of B-Raf (P15056 whole entry): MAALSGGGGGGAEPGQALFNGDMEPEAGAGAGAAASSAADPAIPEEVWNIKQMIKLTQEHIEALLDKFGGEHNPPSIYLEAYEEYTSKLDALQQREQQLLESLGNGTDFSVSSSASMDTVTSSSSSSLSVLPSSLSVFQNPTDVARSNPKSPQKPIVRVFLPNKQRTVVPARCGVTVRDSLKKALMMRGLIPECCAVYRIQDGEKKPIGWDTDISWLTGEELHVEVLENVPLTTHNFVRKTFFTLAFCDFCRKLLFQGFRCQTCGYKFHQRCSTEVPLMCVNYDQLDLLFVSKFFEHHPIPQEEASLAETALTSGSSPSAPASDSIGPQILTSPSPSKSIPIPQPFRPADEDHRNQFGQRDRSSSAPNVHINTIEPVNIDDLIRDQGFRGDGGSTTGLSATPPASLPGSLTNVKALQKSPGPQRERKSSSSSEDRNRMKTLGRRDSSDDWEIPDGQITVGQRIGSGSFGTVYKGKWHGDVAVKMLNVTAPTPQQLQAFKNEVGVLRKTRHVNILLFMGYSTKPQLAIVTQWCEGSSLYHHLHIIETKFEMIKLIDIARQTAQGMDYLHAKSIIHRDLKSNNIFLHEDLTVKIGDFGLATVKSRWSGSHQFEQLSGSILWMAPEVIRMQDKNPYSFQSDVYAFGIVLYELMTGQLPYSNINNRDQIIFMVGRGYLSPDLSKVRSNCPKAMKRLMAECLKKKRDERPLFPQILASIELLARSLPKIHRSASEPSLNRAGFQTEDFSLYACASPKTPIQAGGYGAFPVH
Sequence of S6K (P23443 whole entry): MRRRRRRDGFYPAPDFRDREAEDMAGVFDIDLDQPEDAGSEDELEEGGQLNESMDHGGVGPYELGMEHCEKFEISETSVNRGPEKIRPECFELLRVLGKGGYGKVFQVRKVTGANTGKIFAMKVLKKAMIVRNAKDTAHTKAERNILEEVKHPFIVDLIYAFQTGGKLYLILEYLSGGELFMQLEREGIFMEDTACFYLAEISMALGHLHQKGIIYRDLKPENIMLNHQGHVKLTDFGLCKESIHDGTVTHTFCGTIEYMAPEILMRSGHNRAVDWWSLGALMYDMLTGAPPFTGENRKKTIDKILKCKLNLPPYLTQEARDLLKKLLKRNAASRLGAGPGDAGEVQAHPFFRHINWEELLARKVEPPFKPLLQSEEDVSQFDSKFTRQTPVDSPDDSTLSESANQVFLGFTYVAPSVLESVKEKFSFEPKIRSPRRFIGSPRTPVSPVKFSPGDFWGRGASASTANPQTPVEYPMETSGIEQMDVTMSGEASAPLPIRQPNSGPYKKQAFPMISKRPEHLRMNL
Sequence of EGFR (T790M) (P00533 25-1210 T790M): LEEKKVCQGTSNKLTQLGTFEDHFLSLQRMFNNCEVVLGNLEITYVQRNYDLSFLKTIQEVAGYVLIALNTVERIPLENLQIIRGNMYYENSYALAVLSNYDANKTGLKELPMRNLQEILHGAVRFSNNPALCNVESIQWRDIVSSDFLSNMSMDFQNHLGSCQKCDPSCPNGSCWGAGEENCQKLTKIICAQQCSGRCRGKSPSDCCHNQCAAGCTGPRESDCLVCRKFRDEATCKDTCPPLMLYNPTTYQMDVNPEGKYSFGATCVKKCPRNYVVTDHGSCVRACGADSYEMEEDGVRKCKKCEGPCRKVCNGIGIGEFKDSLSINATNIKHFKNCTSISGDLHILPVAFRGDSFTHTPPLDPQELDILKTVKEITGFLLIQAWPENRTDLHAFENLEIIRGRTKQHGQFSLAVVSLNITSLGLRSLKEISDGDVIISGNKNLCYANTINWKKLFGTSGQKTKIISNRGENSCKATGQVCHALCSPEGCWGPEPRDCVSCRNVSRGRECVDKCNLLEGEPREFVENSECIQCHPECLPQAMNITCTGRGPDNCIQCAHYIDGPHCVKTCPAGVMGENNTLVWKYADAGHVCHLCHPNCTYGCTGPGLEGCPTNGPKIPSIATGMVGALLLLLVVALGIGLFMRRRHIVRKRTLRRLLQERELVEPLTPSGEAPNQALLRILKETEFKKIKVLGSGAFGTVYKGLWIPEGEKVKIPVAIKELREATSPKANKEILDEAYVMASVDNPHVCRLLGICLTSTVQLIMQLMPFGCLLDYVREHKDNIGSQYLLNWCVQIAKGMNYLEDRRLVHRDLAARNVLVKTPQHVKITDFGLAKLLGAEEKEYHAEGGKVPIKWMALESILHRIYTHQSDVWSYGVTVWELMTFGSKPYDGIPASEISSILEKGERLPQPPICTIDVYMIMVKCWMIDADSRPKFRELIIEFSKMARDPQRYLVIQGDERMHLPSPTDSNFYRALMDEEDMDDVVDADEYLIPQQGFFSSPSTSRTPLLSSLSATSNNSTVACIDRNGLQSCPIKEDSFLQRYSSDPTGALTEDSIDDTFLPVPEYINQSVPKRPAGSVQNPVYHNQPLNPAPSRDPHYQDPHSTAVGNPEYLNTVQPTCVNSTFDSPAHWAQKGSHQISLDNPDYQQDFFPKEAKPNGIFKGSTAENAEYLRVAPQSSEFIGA

CC(C)n1nc(-c2ccc(NC(=O)Nc3cccc(C(F)(F)F)c3)cc2)c2c(N)ncnc21 [AD57]
inhibition of EGFR (T790M) versus wild type (EGFR (T790M)): retained or improved on inhibition
potency for Ret in vitro (Ret kinase domain; purified Ret kinase domain): near equal potency
number of kinases inhibited at a cutoff of greater than 80% inhibition [1]: most
S6K inhibition, in words (S6K): potent inhibitor
Src inhibition, in words (Src): potent inhibitor; also recorded: strongly inhibited
pharmacokinetic profile, in words [2]: pharmacokinetic profiles in a range that is similar to several clinical agents
reduction of tumor progression relative to vehicle [3]: ~3 fold
toxicity as assessed by animal body weights [3]: no detectable toxicity
tumor growth, in words [3]: displays antitumor activity; also recorded: significant suppression of tumor growth
B-Raf (Raf) inhibition, in words (B-Raf): potent inhibitor
sensitivity to erlotinib [4]: confer dose-dependent sensitivity to erlotinib

CC(C)n1nc(-c2ccc(NC(=O)Nc3cc(C(F)(F)F)ccc3F)cc2)c2c(N)ncnc21 [AD80]
Ret inhibition, in words (Ret kinase domain; in vitro kinase profile, 1 μM): inhibited
S6K inhibition, in words (S6K): inhibited
induction of apoptosis (AnnexinV/PI positive cells) (TPC1 cells; combination with MEK inhibitor PD325901, 72 h): robust induction of apoptosis
induction of apoptosis (AnnexinV/PI positive cells) (TPC1 cells; single agent, 72 h): does not lead to induction of apoptosis
Src inhibition, in words (Src): inhibited
pharmacokinetic profile, in words [2]: pharmacokinetic profiles in a range that is similar to several clinical agents
reduction of tumor progression relative to vehicle [3]: 3.1 fold
toxicity as assessed by animal body weights [3]: reduced body weight modulation relative to Vandetanib
tumor growth, in words [3]: enhanced tumor growth inhibition
B-Raf (Raf) inhibition, in words (B-Raf): inhibited
sensitivity to erlotinib [4]: confer dose-dependent sensitivity to erlotinib
